Assay results as given in patent publication US20240109893A1, “PREPARATION AND APPLICATION METHOD OF HETEROCYCLIC COMPOUNDS AS KRAS INHIBITOR” (SHANGHAI KECHOW PHARMA, INC., priority 2020, published 2024).

These compounds were tested on H358 cells (assay: Cell activity experiment: activity test of H358 cells (MTT, 5 days)). Details: 5 days incubation, absorbance 492 nm.
Type: cell-based
How it was run: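 H358 cells seeded 90 μL at 55555 cells/mL, grown 24 h, then exposed to 3-fold serial compound dilutions (final top 10000 nM, 0.5% DMSO) in triplicate for 5 days at 37° C., 5% CO2. Viability by MTT (4 h), formazan dissolved in DMSO, absorbance at 492 nm.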

SMILES	IC50 [nM]
C=CC(=O)N1CC[C@H]2[C@H]1CN2c1c(Cl)c(-c2cccc3c2CCCC3)cc2nc(OC[C@@]34CCCN3C[C@H](F)C4)ncc12 [Example 473]	35
C=CC(=O)N1CC[C@H]2[C@H]1CN2c1nc(OC[C@@]23CCCN2C[C@H](F)C3)nc2cc(-c3cccc4cccc(Cl)c34)c(Cl)cc12 [Example 474]	30
C=CC(=O)N1CC[C@H]2[C@H]1CN2c1nc(OC[C@@]23CCCN2C[C@H](F)C3)nc2cc(-c3cccc4ccc(F)c(Cl)c34)c(Cl)cc12 [Example 475]	25

Same assay, conditions: Homo sapiens, NCI-H358, 120 h, 5 days incubation, absorbance 492 nm

SMILES	IC50 [nM]
C=C(F)C(=O)N1CCN(c2nc(OCC34CCCN3CCC4)nc3nc(-c4cccc5cccc(Cl)c45)ccc23)C[C@@H]1CC#N [Example 259, (S)-2-(4-(7-(8-chloronaphthalen-1-yl)-2-((tetrahydro-1H-pyrrolizin-7a(5H)-yl)methoxy)pyridino[2,3-d]pyrimidin-4-yl)-1-(2-fluoroacryloyl)piperazin-2-yl)acetonitrile]	31
C=CC(=O)N1CCN(c2nc(OC[C@@]34CCCN3C[C@H](F)C4)nc3nc(-c4cccc5cccc(Cl)c45)ccc23)C[C@@H]1CC#N [Example 260]	10
C=CC(=O)N1CCN(c2nc(OC[C@@H]3CCCN3C)nc3c(F)c(-c4cccc5ccc(F)c(Cl)c45)ccc23)C[C@@H]1CC#N [Example 359, 2-((S)-1-acryloyl-4-(7-(8-chloro-7-fluoronaphthalen-1-yl)-8-fluoro-2-(((S)-1-methylpyrrolidin-2-yl)methoxy)quinazolin-4-yl)piperazin-2-yl)acetonitrile]	3
C=CC(=O)N1CCN(c2nc(OC[C@@H]3C[C@@H](F)CN3C)nc3c(F)c(-c4cccc5c4CCCC5)ccc23)C[C@@H]1CC#N [Example 360]	10
C=CC(=O)N1CCN(c2nc(OC[C@@H]3C[C@@H](F)CN3C)nc3c(F)c(-c4cccc5cccc(Cl)c45)ccc23)C[C@@H]1CC#N [Example 361]	5
C=CC(=O)N1CCN(c2nc(OC[C@@H]3C[C@@H](F)CN3C)nc3c(F)c(-c4cccc5ccc(F)c(Cl)c45)ccc23)C[C@@H]1CC#N [Example 362]	4.6
C=CC(=O)N1CCN(c2nc(OCC34CCCN3CCC4)nc3c(F)c(-c4cccc5c4CCCC5)ccc23)C[C@@H]1CC#N [Example 363, (S)-2-(1-acryloyl-4-(8-fluoro-2-((tetrahydro-1H-pyrrolizin-7a(5H)-yl)methoxy)-7-(5,6,7,8-tetrahydronaphthalene)-1-yl)quinazolin-4-ylpiperazin-2-yl)acetonitrile]	5
C=CC(=O)N1CCN(c2nc(OCC34CCCN3CCC4)nc3c(F)c(-c4cccc5cccc(Cl)c45)ccc23)C[C@@H]1CC#N [Example 364, (S)-2-(1-acryloyl-4-(7-(8-chloronaphthalen-1-yl)-8-fluoro-2-((tetrahydro-1H-pyrrolizin-7a(5H)-yl)methoxy)quinazolin-4-yl)piperazin-2-yl)acetonitrile]	2
C=CC(=O)N1CCN(c2nc(OC[C@@]34CCCN3C[C@H](F)C4)nc3c(F)c(-c4cccc5c4CCCC5)ccc23)C[C@@H]1CC#N [Example 366]	3
C=CC(=O)N1CCN(c2nc(OC[C@@]34CCCN3C[C@H](F)C4)nc3c(F)c(-c4cccc5ccc(F)c(Cl)c45)ccc23)C[C@@H]1CC#N [Example 368]	0.11
C=CC(=O)N1CC[C@H]2[C@H]1CN2c1nc(OC[C@@H]2CCCN2C)nc2c(F)c(-c3cccc4cccc(Cl)c34)ccc12 [Example 370, 1-((1R,5S)-6-(7-(8-chloronaphthalen-1-yl)-8-fluoro-2-(((S)-1-methylpyrrolidin-2-yl)methoxy)quinazolin-4-yl)-2,6-diazabicyclo[3.2.0]hept-2-yl)prop-2-en-1-one]	10
C=CC(=O)N1CCN(c2nc(OC[C@@H]3CCCN3C)nc3c(F)c(-c4cccc5c4CCCC5)c(F)cc23)C[C@@H]1CC#N [Example 429]	15
C=CC(=O)N1CCN(c2nc(OC[C@@H]3CCCN3C)nc3cc(-c4cccc5ccc(F)c(Cl)c45)c(Cl)cc23)C[C@@H]1CC#N [Example 466]	65
C=CC(=O)N1CCN(c2nc(OC[C@@H]3C[C@@H](F)CN3C)nc3cc(-c4cccc5c4CCCC5)c(Cl)cc23)C[C@@H]1CC#N [Example 467]	80
C=CC(=O)N1CCN(c2nc(OC[C@@H]3C[C@@H](F)CN3C)nc3cc(-c4cccc5ccc(F)c(Cl)c45)c(Cl)cc23)C[C@@H]1CC#N [Example 469]	70
C=CC(=O)N1CC[C@H]2[C@H]1CN2c1nc(OCC23CCCN2CCC3)nc2cc(-c3cccc4cccc(Cl)c34)c(Cl)cc12 [Example 471, 1-((1R,5S)-6-(6-chloro-7-(8-chloronaphthalen-1-yl)-2-((tetrahydro-1H-pyrrolizin-7a(5H)-yl)methoxy)quinazolin-4-yl)-2,6-diazabicyclo[3.2.0]hept-2-yl)prop-2-en-1-one]	45
C=CC(=O)N1CCN(c2nc(OC[C@@]34CCCN3C[C@H](F)C4)nc3c(F)c(-c4cccc5cccc(Cl)c45)c(Cl)cc23)C[C@@H]1CC#N [Example 510]	130
C=CC(=O)N1CCN(c2nc(OC[C@@H]3CCCN3C)nc3c(F)c(N4CCCc5cc(F)ccc54)c(Cl)cc23)CC1 [Example 615, (S)-1-(4-(6-chloro-8-fluoro-7-(6 fluoro-3,4-dihydroquinoline-1(2H)-yl)-2-((1-methylpyrrolidin-2-yl)methoxy)quinazolin-4-yl)piperazin-1-yl)prop-2-en-1-one]	1010
C=CC(=O)N1CCN(c2nc(OC[C@@H]3CCCN3C)nc3c(F)c(N4CCc5cc(F)ccc54)ccc23)CC1 [Example 617]	884
C=CC(=O)N1CCN(c2nc(OC[C@@H]3CCCN3C)nc3cc(N4CCCc5cccc(Cl)c54)ccc23)C[C@@H]1CC#N [Example 618]	200

Next, values leading:

IC50 [nM]	SMILES
24	C=C(F)C(=O)N1CCN(c2nc(OC[C@@]34CCCN3C[C@H](F)C4)nc3nc(-c4cccc5cccc(Cl)c45)ccc23)C[C@@H]1CC#N [Example 261]
2	C=CC(=O)N1CCN(c2nc(OCC34CCCN3CCC4)nc3c(F)c(-c4cccc5ccc(F)c(Cl)c45)ccc23)C[C@@H]1CC#N [Example 365, (S)-2-(1-acryloyl-4-(7-(8-chloro-7-fluoronaphthalen-1-yl)-8-fluoro-2-((tetrahydro-1H-pyrrolizin-7a(5H)-yl)methoxy)quinazolin-4-yl)piperazin-2-yl)acetonitrile]
20	C=CC(=O)N1CCC2[C@H]1CN2c1nc(OC[C@@H]2CCCN2C)nc2c(F)c(-c3cccc4c3CCCC4)ccc12 (stereo partly shown) [Example 369]
6	C=CC(=O)N1CCC2[C@H]1CN2c1nc(OC[C@@H]2CCCN2C)nc2c(F)c(-c3cccc4ccc(F)c(Cl)c34)ccc12 (stereo partly shown) [Example 371]
5	C=CC(=O)N1CCC2[C@H]1CN2c1nc(OCC23CCCN2CCC3)nc2c(F)c(-c3cccc4c3CCCC4)ccc12 (stereo partly shown) [Example 372]
158	C=CC(=O)N1CCN(c2nc(OC[C@@H]3CCCN3C)nc3cc(-c4cccc5cccc(Cl)c45)c(F)cc23)C[C@@H]1CC#N [Example 394, 2-((S)-1-acryloyl-4-(6-fluoro-7-(8-chloronaphthalen-1-yl)-2-(((S)-1-methylpyrrolidin-2-yl)methoxy)quinazolin-4-yl)piperazin-2-yl)acetonitrile]
140	C=CC(=O)N1CCN(c2nc(OC[C@@H]3CCCN3C)nc3c(F)c(-c4cccc5cccc(Cl)c45)c(F)cc23)C[C@@H]1CC#N [Example 430, 2-((S)-1-acryloyl-4-(6,8-difluoro-7-(8-chloronaphthalen-1-yl)-2-(((S)-1-methylpyrrolidin-2-yl)methoxy)quinazolin-4-yl)piperazin-2-yl)acetonitrile]
148	C=CC(=O)N1CCN(c2nc(OC[C@@H]3CCCN3C)nc3c(F)c(-c4cccc5ccc(F)c(Cl)c45)c(F)cc23)C[C@@H]1CC#N [Example 431]
2.4	C=CC(=O)N1CCN(c2nc(OC[C@@H]3C[C@@H](F)CN3C)nc3c(F)c(-c4cccc5c4CCCC5)c(F)cc23)C[C@@H]1CC#N [Example 432]
75	C=CC(=O)N1CCN(c2nc(OC[C@@H]3C[C@@H](F)CN3C)nc3cc(-c4cccc5cccc(Cl)c45)c(Cl)cc23)C[C@@H]1CC#N [Example 468]
50	C=CC(=O)N1CCN(c2nc(OCC34CCCN3CCC4)nc3cc(-c4cccc5c4CCCC5)c(Cl)cc23)C[C@@H]1CC#N [Example 470]
40	C=CC(=O)N1CC[C@H]2[C@H]1CN2c1nc(OCC23CCCN2CCC3)nc2cc(-c3cccc4ccc(F)c(Cl)c34)c(Cl)cc12 [Example 472, 1-((1R,5S)-6-(6-chloro-7-(8-chloro-7-fluoronaphthalen-1-yl)-2-((tetrahydro-1H-pyrrolizin-7a(5H)-yl)methoxy)quinazolin-4-yl)-2,6-diazabicyclo[3.2.0]hept-2-yl)prop-2-en-1-one]
30	C=CC(=O)N1CCN(c2nc(OC[C@@H]3CCCN3C)nc3cc(-c4cccc5c4C4CC4C5)ccc23)C[C@@H]1CC#N (stereo partly shown) [Example 536]
150	C=C(F)C(=O)N1CCN(c2nc(OC[C@@H]3CCCN3C)nc3cc(-c4cccc5c4C4CC4C5)ccc23)C[C@@H]1CC#N (stereo partly drawn) [Example 537, 2-((2S)-1-(2-fluoroacryloyl)-4-(2-(((S)-1-methylpyrrolidin-2-yl)methoxy)-7-(1,1a,6,6a-tetrahydrocyclopropa[a]inden-2-yl)quinazolin-4-yl)piperazin-2-yl)acetonitrile]
473	C=CC(=O)N1CCN(c2nc(OC[C@@H]3CCCN3C)nc3c(F)c(N4CCCc5cc(F)ccc54)ccc23)C[C@@H]1CC#N [Example 616]
496	C=C(F)C(=O)N1CCN(c2nc(OC[C@@H]3CCCN3C)nc3cc(N4CCCc5cccc(Cl)c54)ccc23)C[C@@H]1CC#N [Example 619, 2-((S)-4-(7-(8-chloro-3,4-dihydroquinoline-1(2H)-yl)-2-(((S)-1-methylpyrrolidin-2-yl)methoxy)quinazolin-4-yl)-1-(2-fluoroacryloyl)piperazin-2-yl)acetonitrile]
138	C=CC(=O)N1CCN(c2c(C#N)c(OCC34CCCN3CCC4)nc3cc(-c4cccc5ccc(F)c(Cl)c45)ccc23)C[C@@H]1CC#N [Example 620]
